Experimental data reported in ChEMBL document CHEMBL5257073, “Development of [18F]Thiazolylacylaminopyridine-Based Glycogen synthase Kinase-3β ligands for positron emission tomography imaging” (Bioorg Med Chem Lett, 2023).
pIC50: −log10 of the molar value.

Columns and labels:
[1] = Stability in mouse plasma assessed as parent compound remaining after 4 hrs by radio-HPLC analysis; assay type: ADME, cell-free; conditions: read-out: Stability
[2] = Stability in iv dosed KM mouse assessed as radioactivity of parent compound remaining in blood after 1 hrs by radio-HPLC analysis; assay type: ADME, organism-based; conditions: in vivo
[3] = Lipophilicity, logD of compound; assay type: physicochemical; conditions: octanol/water
[4] = Biodistribution in blood of iv dosed KM mouse assessed as radioactivity after 2 mins by imaging analysis; assay type: ADME, organism-based; conditions: in vivo
[5] = Biodistribution in brain of iv dosed KM mouse assessed as radioactivity after 2 mins by imaging analysis; assay type: ADME, organism-based; conditions: in vivo
[6] = Biodistribution in heart of iv dosed KM mouse assessed as radioactivity after 2 mins by imaging analysis; assay type: ADME, organism-based; conditions: in vivo
[7] = Biodistribution in liver of iv dosed KM mouse assessed as radioactivity after 2 mins by imaging analysis; assay type: ADME, organism-based; conditions: in vivo
[8] = Biodistribution in spleen of iv dosed KM mouse assessed as radioactivity after 2 mins by imaging analysis; assay type: ADME, organism-based; conditions: in vivo
[9] = Biodistribution in lung of iv dosed KM mouse assessed as radioactivity after 2 mins by imaging analysis; assay type: ADME, organism-based; conditions: in vivo
[10] = Biodistribution in kidney of iv dosed KM mouse assessed as radioactivity after 2 mins by imaging analysis; assay type: ADME, organism-based; conditions: in vivo
[11] = Biodistribution in pancreas of iv dosed KM mouse assessed as radioactivity after 2 mins by imaging analysis; assay type: ADME, organism-based; conditions: in vivo
[12] = Biodistribution in muscle of iv dosed KM mouse assessed as radioactivity after 2 mins by imaging analysis; assay type: ADME, organism-based, Muscle tissue; conditions: in vivo
[13] = Biodistribution in bone of iv dosed KM mouse assessed as radioactivity after 2 mins by imaging analysis; assay type: ADME, organism-based, Bone element; conditions: in vivo
[14] = Biodistribution in stomach of iv dosed KM mouse assessed as radioactivity after 2 mins by imaging analysis; assay type: ADME, organism-based; conditions: in vivo
[15] = Biodistribution in small intestine of iv dosed KM mouse assessed as radioactivity after 2 mins by imaging analysis; assay type: ADME, organism-based; conditions: in vivo
[16] = Biodistribution in blood of iv dosed KM mouse assessed as radioactivity after 10 mins by imaging analysis; assay type: ADME, organism-based; conditions: in vivo
[17] = Biodistribution in brain of iv dosed KM mouse assessed as radioactivity after 10 mins by imaging analysis; assay type: ADME, organism-based; conditions: in vivo
[18] = Biodistribution in heart of iv dosed KM mouse assessed as radioactivity after 10 mins by imaging analysis; assay type: ADME, organism-based; conditions: in vivo
[19] = Biodistribution in liver of iv dosed KM mouse assessed as radioactivity after 10 mins by imaging analysis; assay type: ADME, organism-based; conditions: in vivo
[20] = Biodistribution in spleen of iv dosed KM mouse assessed as radioactivity after 10 mins by imaging analysis; assay type: ADME, organism-based; conditions: in vivo
[21] = Biodistribution in lung of iv dosed KM mouse assessed as radioactivity after 10 mins by imaging analysis; assay type: ADME, organism-based; conditions: in vivo
[22] = Biodistribution in kidney of iv dosed KM mouse assessed as radioactivity after 10 mins by imaging analysis; assay type: ADME, organism-based; conditions: in vivo
[23] = Biodistribution in pancreas of iv dosed KM mouse assessed as radioactivity after 10 mins by imaging analysis; assay type: ADME, organism-based; conditions: in vivo
[24] = Biodistribution in muscle of iv dosed KM mouse assessed as radioactivity after 10 mins by imaging analysis; assay type: ADME, organism-based, Muscle tissue; conditions: in vivo
[25] = Biodistribution in bone of iv dosed KM mouse assessed as radioactivity after 10 mins by imaging analysis; assay type: ADME, organism-based, Bone element; conditions: in vivo
[26] = Biodistribution in stomach of iv dosed KM mouse assessed as radioactivity after 10 mins by imaging analysis; assay type: ADME, organism-based; conditions: in vivo
[27] = Biodistribution in small intestine of iv dosed KM mouse assessed as radioactivity after 10 mins by imaging analysis; assay type: ADME, organism-based; conditions: in vivo
[28] = Biodistribution in blood of iv dosed KM mouse assessed as radioactivity after 30 mins by imaging analysis; assay type: ADME, organism-based; conditions: in vivo, 0.5 h
[29] = Biodistribution in brain of iv dosed KM mouse assessed as radioactivity after 30 mins by imaging analysis; assay type: ADME, organism-based; conditions: in vivo, 0.5 h
[30] = Biodistribution in heart of iv dosed KM mouse assessed as radioactivity after 30 mins by imaging analysis; assay type: ADME, organism-based; conditions: in vivo, 0.5 h
[31] = Biodistribution in liver of iv dosed KM mouse assessed as radioactivity after 30 mins by imaging analysis; assay type: ADME, organism-based; conditions: in vivo, 0.5 h
[32] = Biodistribution in spleen of iv dosed KM mouse assessed as radioactivity after 30 mins by imaging analysis; assay type: ADME, organism-based; conditions: in vivo, 0.5 h
[33] = Biodistribution in lung of iv dosed KM mouse assessed as radioactivity after 30 mins by imaging analysis; assay type: ADME, organism-based; conditions: in vivo, 0.5 h
[34] = Biodistribution in kidney of iv dosed KM mouse assessed as radioactivity after 30 mins by imaging analysis; assay type: ADME, organism-based; conditions: in vivo, 0.5 h
[35] = Biodistribution in pancreas of iv dosed KM mouse assessed as radioactivity after 30 mins by imaging analysis; assay type: ADME, organism-based; conditions: in vivo, 0.5 h
[36] = Biodistribution in muscle of iv dosed KM mouse assessed as radioactivity after 30 mins by imaging analysis; assay type: ADME, organism-based, Muscle tissue; conditions: in vivo, 0.5 h
[37] = Biodistribution in bone of iv dosed KM mouse assessed as radioactivity after 30 mins by imaging analysis; assay type: ADME, organism-based, Bone element; conditions: in vivo, 0.5 h
[38] = Biodistribution in stomach of iv dosed KM mouse assessed as radioactivity after 30 mins by imaging analysis; assay type: ADME, organism-based; conditions: in vivo, 0.5 h
[39] = Biodistribution in small intestine of iv dosed KM mouse assessed as radioactivity after 30 mins by imaging analysis; assay type: ADME, organism-based; conditions: in vivo, 0.5 h
[40] = Biodistribution in blood of iv dosed KM mouse assessed as radioactivity after 60 mins by imaging analysis; assay type: ADME, organism-based; conditions: in vivo, 1 h
[41] = Biodistribution in brain of iv dosed KM mouse assessed as radioactivity after 60 mins by imaging analysis; assay type: ADME, organism-based; conditions: in vivo, 1 h
[42] = Biodistribution in heart of iv dosed KM mouse assessed as radioactivity after 60 mins by imaging analysis; assay type: ADME, organism-based; conditions: in vivo, 1 h
[43] = Biodistribution in liver of iv dosed KM mouse assessed as radioactivity after 60 mins by imaging analysis; assay type: ADME, organism-based; conditions: in vivo, 1 h
[44] = Biodistribution in spleen of iv dosed KM mouse assessed as radioactivity after 60 mins by imaging analysis; assay type: ADME, organism-based; conditions: in vivo, 1 h
[45] = Biodistribution in lung of iv dosed KM mouse assessed as radioactivity after 60 mins by imaging analysis; assay type: ADME, organism-based; conditions: in vivo, 1 h
[46] = Biodistribution in kidney of iv dosed KM mouse assessed as radioactivity after 60 mins by imaging analysis; assay type: ADME, organism-based; conditions: in vivo, 1 h
[47] = Biodistribution in pancreas of iv dosed KM mouse assessed as radioactivity after 60 mins by imaging analysis; assay type: ADME, organism-based; conditions: in vivo, 1 h
[48] = Biodistribution in muscle of iv dosed KM mouse assessed as radioactivity after 60 mins by imaging analysis; assay type: ADME, organism-based, Muscle tissue; conditions: in vivo, 1 h
[49] = Biodistribution in bone of iv dosed KM mouse assessed as radioactivity after 60 mins by imaging analysis; assay type: ADME, organism-based, Bone element; conditions: in vivo, 1 h
[50] = Biodistribution in stomach of iv dosed KM mouse assessed as radioactivity after 60 mins by imaging analysis; assay type: ADME, organism-based; conditions: in vivo, 1 h
[51] = Biodistribution in small intestine of iv dosed KM mouse assessed as radioactivity after 60 mins by imaging analysis; assay type: ADME, organism-based; conditions: in vivo, 1 h
[52] = target: Glycogen synthase kinase-3 beta (Homo sapiens, UniProt P49841); experiment: Inhibition of GSK-3beta (unknown origin)
Chain of Glycogen synthase kinase-3 beta (P49841 whole entry): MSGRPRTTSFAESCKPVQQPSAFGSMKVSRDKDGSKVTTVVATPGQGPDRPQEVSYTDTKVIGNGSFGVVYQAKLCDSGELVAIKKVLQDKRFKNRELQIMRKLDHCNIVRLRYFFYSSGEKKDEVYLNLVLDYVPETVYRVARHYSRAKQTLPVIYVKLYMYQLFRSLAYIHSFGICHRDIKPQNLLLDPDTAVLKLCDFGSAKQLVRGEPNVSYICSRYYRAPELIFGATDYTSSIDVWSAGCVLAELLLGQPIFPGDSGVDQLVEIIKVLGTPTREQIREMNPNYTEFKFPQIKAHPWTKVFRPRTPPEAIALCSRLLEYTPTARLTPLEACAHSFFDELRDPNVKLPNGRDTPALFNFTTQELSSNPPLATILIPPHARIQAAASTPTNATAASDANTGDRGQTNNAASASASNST

## CNC(=O)c1sc(-c2ccnc(NC(=O)C3CC3)c2)nc1OCC[18F]
[1]
  remaining at 4 h: > 95%
[2]
  Stability: 90%
[3]
  logD: 2.24
[4]
  Drug uptake: 5.64 % ID/g
[5]
  Drug uptake: 1.68 % ID/g
[6]
  Drug uptake: 8.03 % ID/g
[7]
  Drug uptake: 22.28 % ID/g
[8]
  Drug uptake: 5.28 % ID/g
[9]
  Drug uptake: 7.28 % ID/g
[10]
  Drug uptake: 16.09 % ID/g
[11]
  Drug uptake: 7.32 % ID/g
[12]
  Drug uptake: 3.45 % ID/g
[13]
  Drug uptake: 2.83 % ID/g
[14]
  Drug uptake: 2.53 % ID/g
[15]
  Drug uptake: 9.74 % ID/g
[16]
  Drug uptake: 3.5 % ID/g
[17]
  Drug uptake: 0.77 % ID/g
[18]
  Drug uptake: 5.44 % ID/g
[19]
  Drug uptake: 32.93 % ID/g
[20]
  Drug uptake: 4.48 % ID/g
[21]
  Drug uptake: 4.5 % ID/g
[22]
  Drug uptake: 14.4 % ID/g
[23]
  Drug uptake: 5.07 % ID/g
[24]
  Drug uptake: 2.18 % ID/g
[25]
  Drug uptake: 2.42 % ID/g
[26]
  Drug uptake: 3.29 % ID/g
[27]
  Drug uptake: 11.16 % ID/g
[28]
  Drug uptake: 2.18 % ID/g
[29]
  Drug uptake: 0.42 % ID/g
[30]
  Drug uptake: 3.41 % ID/g
[31]
  Drug uptake: 23.75 % ID/g
[32]
  Drug uptake: 2.91 % ID/g
[33]
  Drug uptake: 2.87 % ID/g
[34]
  Drug uptake: 13.09 % ID/g
[35]
  Drug uptake: 3.05 % ID/g
[36]
  Drug uptake: 1.38 % ID/g
[37]
  Drug uptake: 2.05 % ID/g
[38]
  Drug uptake: 2.92 % ID/g
[39]
  Drug uptake: 24.4 % ID/g
[40]
  Drug uptake: 1.11 % ID/g
[41]
  Drug uptake: 0.31 % ID/g
[42]
  Drug uptake: 1.73 % ID/g
[43]
  Drug uptake: 15.27 % ID/g
[44]
  Drug uptake: 1.4 % ID/g
[45]
  Drug uptake: 1.54 % ID/g
[46]
  Drug uptake: 7.11 % ID/g
[47]
  Drug uptake: 1.76 % ID/g
[48]
  Drug uptake: 0.87 % ID/g
[49]
  Drug uptake: 2.91 % ID/g
[50]
  Drug uptake: 1.88 % ID/g
[51]
  Drug uptake: 31.31 % ID/g

## O=C(NCCF)c1sc(-c2ccnc(NC(=O)C3CC3)c2)nc1OCC1CC1
[52]
  pIC50: 7.74

## CN(C)C(=O)c1sc(-c2ccnc(NC(=O)C3CC3)c2)nc1OCCF
[52]
  pIC50: 6.82

## CNC(=O)c1sc(-c2ccnc(NC(=O)C3CC3)c2)nc1OCCOCCF
[52]
  pIC50: 7.44

## CCOC(=O)c1sc(-c2ccnc(NC(=O)C3CC3)c2)nc1OCCOCCOCCF
[52]
  pIC50: 6.46

## O=C(Nc1cc(-c2nc(OCC3CC3)c(C(=O)N3CC(F)C3)s2)ccn1)C1CC1
[52]
  pIC50: 7.38

## CN(C)C(=O)c1sc(-c2ccnc(NC(=O)C3CC3)c2)nc1OCCOCCOCCF
[52]
  pIC50: 6.37

## CCOC(=O)c1sc(-c2ccnc(NC(=O)C3CC3)c2)nc1OCCF
[52]
  pIC50: 7.17

## CNC(=O)c1sc(-c2ccnc(NC(=O)C3CC3)c2)nc1OCCF
[52]
  pIC50: 8.22

## CN(C)C(=O)c1sc(-c2ccnc(NC(=O)C3CC3)c2)nc1OCCOCCF
[52]
  pIC50: 6.83

## CCOC(=O)c1sc(-c2ccnc(NC(=O)C3CC3)c2)nc1OCCOCCF
[52]
  pIC50: 6.37
